Data: US6011000A, “Compositions for the treatment of blood disorders” (priority 1995, dated 2000)
Where two headings read alike, the source gives them in different places.

Columns and labels:
[1] = system: fetal globin mRNA (human erythroleukemia cells); experiment: Fetal globin mRNA in erythroleukemia cells (primer extension); assay type: cell-based; details: for Gamma/Alpha: untreated 0.46; for activation at 1000 µM: Homo sapiens, 96 h, read-out: Gamma Globin mRNA (increase)
Method: Compounds were tested for increased expression of the human globin genes in human erythroid cells. In addition, as the cell line being tested is a tumor cell line, the assay determines if differentiation, a growth inhibitory effect on cancer cells, is induced by the compounds tested. Human erythroleukemia cells were cultured in RPMI media with 10% fetal calf serum alone or with treatment with various compounds for 4 days. Globin MRNA was quantitated by primer extension analysis. Fetal globin mRNA was compared to the amount of fetal globin mRNA produced in untreated cells during the same culture period. The quantitation was expressed as a percent of alpha globin MRNA which was constant. Results are expressed proportional to α-globin mRNA (Table 3).

[2] = system: system A transport (K562 cells and nucleated erythroblasts from fetal liver); experiment: Effects on system A amino acid transport (3H-MAIB uptake); assay type: cell-based, human
Method: Inhibition of nutrient uptake is undesirable for treatment of anemias. Methyl aminoisobutyric acid (MAIB) labeled with tritium (^3 H) is normally taken up by system A amino acid transport. Cold (unlabeled) compounds were added to cultures containing ^3 H-MAIB and incubated for 1 hour. Cells were harvested and the amount of ^3 H taken up by cells was quantitated by scintillation counting.

[3] = system: erythroid cells (peripheral blood); experiment: Erythroid cell viability by fluorescent staining (Calcein-AM), FIG. 2; assay type: cell-based, human; details: vs untreated controls
Method: FIG. 2 Peripheral blood cell viability after incubation with arginine butyrate, dihydrocinnamic acid, phenoxyacetic acid and butyric acid ethyl ester.
Compositions were tested for the ability to directly stimulate erythroid cell growth. Cell growth stimulation is a useful property for an agent to be used to treat anemias and distinguishes such agents from the cytotoxic drugs currently being tested for treatment of hemoglobinopathies. Cell viability analyses were performed using fluorescent staining to detect living cells. Cells were in log phase of growth in 6-well dishes when used in proliferation assays. For enumeration of living cells, wells were washed once with medium to remove nonadherent or dead cells. Remaining live cells were labeled with 2 μM 2',7'-bis-(carboxyethyl)-5-(and 6)-carboxy-fluorescein acetoxy-methyl ester (Calcein-AM) (Molecular Probes; Eugene, Oreg.) for 20 minutes at 37° C. and washed once. Fluorescence intensity of live cells was read on a CytoFluor 2300 Fluorescence Plate Scanner (Millipore; Bedford, Mass.) at excitation and emission wavelengths of 485 and 530 nm, respectively. The fluorescence intensity of a well was proportional to the number of living cells in the well. Background fluorescence was measured separately for each plate and subtracted from all readings. Each experiment was performed in triplicate or quadruplicate. The standard deviation (SD) of repetitive readings was less than 30% of the mean. Results are depicted in FIG. 2.

human erythroid cells = experiment: DNA fragmentation by flow cytometry (degradation of DNA); assay type: cell-based; details: for Degraded DNA: 4 days, control 26%, 22%; for proportion of degraded DNA: 1.0 mM to 2.0 mM, untreated 26%; for DNA fragmentation / cell viability / DNA integrity: DNA fragmentation assays
Method: Such activities might limit their utility for treatment of anemias such as occur in thalassemia, but alternatively would be useful for anticancer effects. To determine cell viability, human erythroid cells were cultured in the presence and absence of these compounds for 4 days and the amount of DNA fragmentation which occurred was measured.
Flow cytometric determination of DNA profiles and DNA fragmentation were determined. Cytometric analysis was performed with a FACScan (Becton Dickenson Instruments; Columbia, Md.). The data analysis and display were performed using the Cell-Fit software program. Approximately 0.5×10^6 cells were washed twice with PBS and resuspended in 1 ml of 1% sodium citrate, 0.1% Triton X-100 and 50 μg of propidium iodide/ml. Resulting permeabilized cells were kept in the dark at 4° C. overnight before DNA profile or DNA fragmentation analysis (Table 4).

K562 = experiment: Growth of human erythroid cell line K562; assay type: cell-based; details: for growth of K562: over 3 days
Method: Such activities might limit their utility for treatment of anemias such as occur in thalassemia, but alternatively would be useful for anticancer effects. […]
Cell viability analyses were performed using fluorescent staining to detect living cells. Cells were in log phase of growth in 6-well dishes when used in proliferation assays. For enumeration of living cells, wells were washed once with medium to remove nonadherent or dead cells. Remaining live cells were labeled with Calcein-AM for 20 minutes at 37° C. and washed once. Fluorescence intensity of adherent live cells was read on a CytoFluor 2300 Fluorescence Plate Scanner (Millipore; Bedford, Mass.) at excitation and emission wavelengths of 485 and 530 nm, respectively. The fluorescence intensity of a well was proportional to the number of living cells in the well. Background fluorescence was measured separately for each plate and subtracted from all readings. Each experiment was performed in triplicate or quadruplicate. The standard deviation (SD) of repetitive readings was less than 30% of the mean.
At higher concentrations, still easily achievable in vivo, arginine butyrate (0.5 mM) and dihydrocinnamic acid (greater than 0.5 mM) inhibited growth of this tumor cell line by approximately 50%. Therefore, these compounds are also useful as anti-tumor agents.

K562 cells = experiment: Dose response of cell growth, trypan blue exclusion (FIG. 3); assay type: cell-based, human; details: day 4
Method: FIG. 3 Cell viability as determined by the comparative numbers of total and viable K562 cells in the presence of increasing concentrations of (A) phenoxyacetic acid, (B) dihydrocinnamic acid, (C) butyric acid ethyl ester, (D) arginine butyrate, and (E) isobutyramide.
Dose response curves at dosages of up to 2.0 mM were also determined for phenoxyacetic acid (PAA; FIG. 3A), dihydrocinnamic acid (DHC; FIG. 3B), butyric acid ethyl ester (BAEE; FIG. 3C), arginine butyrate (AB; FIG. 3D) and isobutyramide (IBT; FIG. 3E). Cells were counted on day 4 of treatment and viable cells identified by trypan blue exclusion.

| Compound | induction of fetal globin mRNA [1] | Gamma/Alpha ([1]; 1.0 mM, 4 days) | activation at 1000 µM ([1]; 1.0 mM, 4 days) [%] | system A (neutral) amino acid transport [2] | erythroid cell growth and proliferation ([3]; 0.2 mM) | erythroid cell growth and proliferation ([3]; 0.5 mM) | Degraded DNA (human erythroid cells; 0.5 mM) [%] | proportion of degraded DNA (human erythroid cells) [%] | Degraded DNA (human erythroid cells; 1.0 mM) [%] | Degraded DNA (human erythroid cells; 2.0 mM) [%] | DNA fragmentation / cell viability / DNA integrity (human erythroid cells) | growth of K562 (K562; 0.2 mM) | inhibition at 500 µM (K562; Homo sapiens, K562, 0.5 mM) [%] | cell growth (K562 cells; concentrations above 0.2 mM) | activation at 1000 µM [1] [%] | system A (neutral) amino acid transport ([2]; 1 hour, 3H-MAIB (FIG. 12), listed as phenoxy acetic acid) | system A (neutral) amino acid transport ([2]; 1 hour, 3H-MAIB (FIG. 12), listed as phenoxyacetic acid) | growth of K562 (K562; 0.5 mM) | proliferation (K562 cells; up to 2.0 mM) |
| --- | --- | --- | --- | --- | --- | --- | --- | --- | --- | --- | --- | --- | --- | --- | --- | --- | --- | --- | --- |
| CCCC(=O)O [AB, arginine butyrate] | significantly increased the induction of fetal globin MRNA | 0.66 | 20 | inhibited the neutral amino acid transport mechanism | inhibited proliferation | inhibited proliferation | 32 | 44 | 34 | 44 | decrease cell viability | either did not inhibit, or slightly enhanced growth | ~50 | suppressed cell growth | – | – | – | – | – |
| O=C(O)COc1ccccc1 [PAA, Phenoxyacetic acid] | significantly increased the induction of fetal globin MRNA | 0.70 | – | – | – | either had no effect or stimulated erythroid cell growth and proliferation | – | 20.6 | – | 20.6 | reduce DNA fragmentation | – | – | – | 24 | caused no significant inhibition and actually increased uptake of nutrients into cells | do not significantly alter system A transport of amino acids | either did not inhibit, or slightly enhanced growth | did not significantly inhibit proliferation |
